In US10202420B2, “Methods and compositions for treatment of cartilage and disc tissue pathologies” (THE ROYAL INSTITUTION FOR ADVANCEMENT OF LEARNING/MCGILL …, priority 2013, dated 2019):

Tests used:
Assay type in all cases: cell-based
[1] = test system: bovine annulus fibrosus (AF) cells; assay: Proteoglycan synthesis by 35SO4 incorporation, cells in alginate beads; conditions: 48 h
Procedure: (§1) Human and bovine IVDs were separated from the adjoining vertebral body and divided into NP and AF for bovine IVDs and NP and inner annulus fibrosus (iAF) for human IVDs. Tissue from the human outer annulus fibrosus (oAF) was not used for cell isolation in this study. Cells were enzymatically isolated from each region as previously described (63). Briefly, NP and AF tissues were dissected into approximately 2-mm thick pieces, washed twice in PBS containing 50 μg/mL gentamicin, […] and 0.25 μg/mL fungizone, then digested with 0.2% pronase for 1 h, followed by collagenase type IA at 0.01% for NP and 0.04% for AF tissue for 4 h in serum free DMEM.
(§2) To compare the metabolic response to the various Link N peptides, freshly isolated human and bovine cells from NP and AF regions were embedded in 1.2% alginate beads, as previously described (65). Cells in alginate beads were cultured at 37° C., 5% CO2 in DMEM, containing 4.5 g/L glucose and supplemented with 10% FCS, 25 mmol/L HEPES, 50 μg/mL gentamicin sulphate, 0.25 μg/mL fungizone, 50 μg/mL L-ascorbate, and 2 mmol/L GlutaMAX. The beads were stabilized for 7 days and cell viability was assessed by Live/Dead® assay prior to further treatment. 5 beads per well were then cultured in 48 well plates in the presence of equimolar concentrations of either Link N (1 μg/mL), R-Link N (1 μg/mL), S-Link N (1 μg/mL), Link N 1-8 (0.5 μg/mL) or Link N 9-16 (0.5 μg/mL) in 0.5 mL DMEM. 25 μCi/mL ^35SO4 was added to the medium to allow assessment of proteoglycan synthesis (66). In addition, beads were exposed for 48 h to IL-1β (10 ng/mL) alone, or to a combination of peptides and IL-1β (51). At the end of the culture period, medium was collected and dialyzed exhaustively against miliQ water at […] (Spectra/Por® 3), followed by cold chase with 1M MgSO4 for 2 h to remove any remaining unincorporated ^35SO4. The ^35SO4 incorporation was measured using a beta scintillation counter (Beckman Coulter LS6500, Beckman Coulter, Mississauga, Canada).

[2] = test system: bovine nucleus pulposus (NP) cells; assay: as above; conditions: 48 h
Procedure: as §1, §2

[3] = test system: human inner annulus fibrosus (iAF) cells; assay: as above; conditions: human AF (iAF) cells, 48 h
Procedure: (§3) Human thoracolumbar spines were retrieved through the Transplant Quebec organ donation program. Discs were obtained from 7 donors, 1 male and 6 female, with a mean age of 29.6 years and an age range of 16 to 47 years (Table 1). Donors having had recent chemotherapy, radiation therapies to the spine, or significant long-standing paralysis were excluded from the study. Spine retrieval was performed within 8 h of death. Discs with calcification and loss of disc height were not included in the study. All procedures were approved by the institutional review board of the Montreal General Hospital.
as §1, §2

[4] = test system: human nucleus pulposus (NP) cells; assay: as above; conditions: 48 h
Procedure: as §3, §1, §2

[5] = test system: bovine discs with trypsin-induced degeneration; assay: Proteoglycan (GAG, DMMB) concentration in bovine disc organ culture with trypsin-induced degeneration; conditions: degenerated bovine discs, 2 weeks post Link N 1-8 treatment
Source text: (§4) The largest first 3-4 caudal discs were isolated from the tails of 24- to 30-month-old steers, as described previously (21,22). Briefly, the tails were dissected free of skin, muscles and ligaments, and pedicles for each segment were removed. The bone and the adjacent calcified part of the cartilaginous endplate were removed, so that the surface of the disc was soft and flexible without detectable calcified tissue. After the discs were rinsed in PBS supplemented with 1,000 U/mL penicillin, 1,000 μg/mL streptomycin and 0.25 μg/mL fungizone (GIBCO, Burlington, Canada), they were preconditioned for 3 days in sterile 80 mL specimen containers (STARPLEX Scientific, Etobicoke, Canada) containing 50 mL culture medium. (DMEM with 2 mM Glutamax and 25 mM Hepes, supplemented with 5% FBS, 100 U/mL penicillin, 100 μg/mL streptomycin, 50 μg/mL L-ascorbate). […] The number of MSCs used was based on a study by Liebscher et al (23), which measured the cell density of healthy human discs. […]
(§5) The remaining nucleus pulposus (NP) tissue was collected and the wet weight was recorded (21). […]
Sulfated glycosaminoglycans (GAGs) were quantified in tissue extracts by a modified dimethyl methylene blue (DMMB) dye-binding assay (25,26). […]

aggrecan core protein = assay: Aggrecan core protein by Western blot, bovine disc organ culture; conditions: degenerated bovine discs, 2 weeks post Link N 1-8 treatment
Source text: as §4, with “L-ascorbate). Degeneration was induced by a single injection of 100 μg trypsin (Sigma-Aldrich) dissolved in 75 μL PBS into the center of the disc using a 28 G½ needle (21) The needle was placed on top of the disc to measure the distance needed to reach the center and was then inserted to the same depth.” for “L-ascorbate).”
as §5

type II collagen = assay: Type II collagen by Western blot, bovine disc organ culture; conditions: degenerated bovine discs, 2 weeks post Link N 1-8 treatment
Source text: as §4, with “L-ascorbate). Degeneration was induced by a single injection of 100 μg trypsin (Sigma-Aldrich) dissolved in 75 μL PBS into the center of the disc using a 28 G½ needle (21) The needle was placed on top of the disc to measure the distance needed to reach the center and was then inserted to the same depth.” for “L-ascorbate).”
as §5

[6] = 16-mer peptides 1 μg/mL, 8-mer peptides 0.5 μg/mL, vs medium alone
[7] = IL-1β 10 ng/mL, vs IL-1-containing medium

## DHLSDNYT [Link N 1-8, Link-N first 8 peptide residues]
[1]; [6]
  proteoglycan synthesis (35SO4 incorporation): statistically significant increase
[1]; [7]
  proteoglycan synthesis (35SO4 incorporation) in the presence of IL-1β: significantly induced proteoglycan production to the same extent as native Link N
[2]; [6]
  proteoglycan synthesis (35SO4 incorporation): statistically significant increase
[2]; [7]
  proteoglycan synthesis (35SO4 incorporation) in the presence of IL-1β: significantly induced proteoglycan production to the same extent as native Link N
[3]; [6]
  proteoglycan synthesis (35SO4 incorporation): significant increase
[3]; [7]
  proteoglycan synthesis (35SO4 incorporation) in the presence of IL-1β: significantly increased response
[4]; [6]
  proteoglycan synthesis (35SO4 incorporation): significant increase
[4]; [7]
  proteoglycan synthesis (35SO4 incorporation) in the presence of IL-1β: significantly increased response
[5]
  proteoglycan synthesis (proteoglycan concentration in the discs): statistically significant increase
Aggrecan core protein
  aggrecan expression: statistically significant increase
Type II collagen
  type II collagen expression: statistically significant increase
